Experimental findings from ChEMBL document CHEMBL3860030, “Design, synthesis and biological evaluation of novel macrocyclic bisbibenzyl analogues as tubulin polymerization inhibitors” (Eur J Med Chem, 2016) are described below.

As a reminder, the IC50 is the point on the concentration scale where inhibition reaches its midpoint.

Where a name gives a salt, the structure may show the parent alone. Active and inactive are the calls of the source. The rule behind the calls is not given here.

The test system of one assay is HCC1428. The assay is described as follows: Cytotoxicity against human HCC1428 cells assessed as decrease in cell viability at 1 uM after 60 hrs by xCELLigence system. The assay is classed as functional, cell-based.
For assay [1], the species on record is Bos taurus. The assay is described as follows: Inhibition of bovine brain tubulin polymerization at 5 uM measured every minute for 1 hr by spectrophotometric method.
The nature of assay [2]: Cytotoxicity against human HCC1428 cells assessed as decrease in cell viability after 48 hrs by MTT assay. The class given is functional, cell-based. Particulars: HCC1428, 48 h.
Assay [3] can be described thus: Cytotoxicity against docetaxel-resistant human PC3 cells assessed as decrease in cell viability after 48 hrs by MTT assay. The assay is classed as functional, cell-based. Conditions: PC-3, 48 h. Background: Tetrazolium dyes change colour on reduction, which living cells bring about.
The nature of the next assay: cells. Particulars: Homo sapiens, HeLa, 48 h.
Assay [4] can be described thus: Cytotoxicity against human HT-29 cells assessed as decrease in cell viability after 48 hrs by MTT assay. The assay is classed as functional, cell-based. Conditions: HT-29, 48 h.
The species named for assay [5] is Bos taurus. The assay is described as follows: Induction of bovine brain tubulin polymerization at 5 uM measured every minute for 1 hr by spectrophotometric method.

Description for cells: Cytotoxicity against human HeLa cells assessed as decrease in cell viability after 48 hrs by MTT assay

Turning to `CC[C@]1(O)C[C@H]2CN(CCc3c([nH]c4ccccc34)[C@@](C(=O)OC)(c3cc4c(cc3OC)N(C=O)[C@H]3[C@@](O)(C(=O)OC)[C@H](OC(C)=O)[C@]5(CC)C=CCN6CC[C@]43[C@@H]65)C2)C1`, the result with HCC1428 was Active. Besides, in the assay listed under Bos taurus [1], the inhibition entry was “Active”.
`COc1cccc2c1C(=O)c1c(O)c3c(c(O)c1C2=O)C[C@@](O)(C(=O)CO)C[C@@H]3O[C@H]1C[C@H](N)[C@H](O)[C@H](C)O1` [DOXORUBICIN HYDROCHLORIDE]: the IC50 in assay [2] came out at 1560 nM; in assay [3], 15200 nM; in the assay “cells”, 1060 nM; in assay [4], 1460 nM.
`CC(=O)O[C@H]1C(=O)[C@@]2(C)[C@H]([C@H](OC(=O)c3ccccc3)[C@]3(O)C[C@H](OC(=O)[C@H](O)[C@@H](NC(=O)c4ccccc4)c4ccccc4)C(C)=C1C3(C)C)[C@]1(OC(C)=O)CO[C@@H]1C[C@@H]2O`: the outcome in the assay listed under Bos taurus [5] was Active.
